Test [1] addresses T1, human CaSR (Homo sapiens, UniProt P41180, E1011Q).
T1 construct: expressed in transfected cells; host or cells: 293E cells (HEK293 expressing EBNA1, ATCC CRL-10852), transient transfection of hCaSR/pcDNA3.1
T1 sequence (P41180 20-1078 E1011Q): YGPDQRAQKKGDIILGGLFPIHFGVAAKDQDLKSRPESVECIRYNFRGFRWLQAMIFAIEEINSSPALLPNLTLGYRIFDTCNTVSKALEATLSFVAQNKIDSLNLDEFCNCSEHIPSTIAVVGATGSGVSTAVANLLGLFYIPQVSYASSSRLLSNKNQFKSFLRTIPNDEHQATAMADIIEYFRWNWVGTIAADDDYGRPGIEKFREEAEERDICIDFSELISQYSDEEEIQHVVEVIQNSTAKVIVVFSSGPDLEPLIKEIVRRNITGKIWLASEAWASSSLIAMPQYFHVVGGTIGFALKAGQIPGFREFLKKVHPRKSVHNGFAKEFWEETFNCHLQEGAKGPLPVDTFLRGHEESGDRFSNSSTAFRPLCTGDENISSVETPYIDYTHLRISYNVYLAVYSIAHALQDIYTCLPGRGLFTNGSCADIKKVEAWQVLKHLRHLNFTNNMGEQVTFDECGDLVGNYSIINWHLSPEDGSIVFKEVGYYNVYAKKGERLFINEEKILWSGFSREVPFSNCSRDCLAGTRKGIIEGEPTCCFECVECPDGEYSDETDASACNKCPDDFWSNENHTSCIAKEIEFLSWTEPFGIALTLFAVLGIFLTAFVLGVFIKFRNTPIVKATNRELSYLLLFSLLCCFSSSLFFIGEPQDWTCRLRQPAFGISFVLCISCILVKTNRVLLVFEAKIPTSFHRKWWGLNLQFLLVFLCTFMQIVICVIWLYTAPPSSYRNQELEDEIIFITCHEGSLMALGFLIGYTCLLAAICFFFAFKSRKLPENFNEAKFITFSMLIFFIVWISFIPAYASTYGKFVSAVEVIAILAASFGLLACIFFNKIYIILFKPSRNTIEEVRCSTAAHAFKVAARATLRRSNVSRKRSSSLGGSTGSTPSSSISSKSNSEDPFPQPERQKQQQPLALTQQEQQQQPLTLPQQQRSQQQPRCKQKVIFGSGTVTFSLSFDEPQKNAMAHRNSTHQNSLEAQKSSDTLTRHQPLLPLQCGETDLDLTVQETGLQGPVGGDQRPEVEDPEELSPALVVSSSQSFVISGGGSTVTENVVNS
In words: Evaluation of CaSR agonistic activity (293E cells transfected with hCaSR, Ca2+ fluorescent indicator, FLIPR). The test is classed as cell-based. Particulars: 293E cells expressing human CaSR; concentration giving activation rate 50%. On the procedure:
293E cells (HEK293 cell expressing EBNA1, ATCC No. CRL-10852) were cultured in DMEM containing 10% fetal bovine serum (Dulbecco's modified Eagle medium containing […] Glucose, by NACALAI TESQUE, INC.), in the presence of 250 μg/mL of G418. The cells were spread on a petri dish of 10 cm diameter in 1.8×10^6 cells/15 mL. After leaving them in the CO2 incubator (5% CO2, 37° C.) for 24 hours, plasmid expressing human CaSR: hCaSR/pcDNA3.1 was transfected with a transfection reagent: Mirus TransIT 293 (by Takara Bio Inc.). After leaving it in the CO2 incubator for 24 hours, the cells were collected by DMEM containing 10% fetal bovine serum and seeded on poly-D-lysine coat 384 well plate (by Falcon) in 15,000 cells/well. After leaving them in the CO2 incubator for 24 hours, the medium was removed. Then, 50 μL/well of Ca^2+ fluorescent indicator: Calcium 4 Assay Kit (by Molecular Devices) that was dissolved in an assay buffer (146 mM NaCl, 5 mM KCl, 1 mM MgSO4, 1 mg/mL Glucose, 20 mM HEPES (pH 7.2), 1.5 mM CaCl2) was added thereto, and left at 37° C. for 1 hour and at room temperature for 30 minutes to absorb the fluorescent indicator. The 384 well plate was transferred to FLIPR (by Molecular Devices). Then, 12.5 μL/well of a compound that was dissolved in a 0.1% BSA containing assay buffer was added thereto, and change in fluorescence intensity was measured for 3 minutes. Meanwhile, Compound No. 20 was purchased from Bachem.
The difference between the maximum value and the minimum value (RFU(Max−Min)) of the fluorescence intensity before and after adding a compound was automatically calculated by FLIPR. RFU(Max−Min) when adding a compound in maximum concentration was defined as 100%; and RFU(Max−Min) when adding DMSO instead of the compound in the same concentration as that of the compound was defined as 0%.

Test [2] concerns rat large intestine loop. Kind of test: Effect of a CaSR agonist on water absorption in rat large intestine loop method (PGE2-treated). Particulars: male SD (IGS) rat large intestine loop, PGE2 i.p.; compound in Tyrode solution. The test is classed as in vivo. How it is done: The cecum and large intestine were taken out from the abdomen of a male SD (IGS) rat under pentobarbital anesthesia, and a large intestine loop was prepared by ligating a part 5 cm just below the cecum. Immediately after preparing the loop, PGE2 (4 μg/mL/kg, SIGMA) was intraperitoneally administered. 30 minutes later, 2 mL of Tyrode solution (NaCl 136.9 mM, KCl 2.7 mM, CaCl2.2H2O 1.8 mM, MgCl2.6H2O 1.04 mM, NaH2PO4.2H2O 0.04 mM, glucose 5.55 mM, NaHCO3 11.9 mM) was poured in the prepared loop. 1 hour later, the weight of the loop, the weight thereof when the liquid was removed from the loop, and the loop area were measured to calculate the weight per unit area of the liquid that remains in the loop.
A test compound was tested by dissolving it in Tyrode solution that was adjusted to pH 6.5 to 7.5.
The remaining liquid weight per unit area (g/cm^2) was calculated by the following formula. Remaining liquid weight per unit area (g/cm^2)=(loop weight−loop weight when the liquid was removed from the loop)/loop area
Water absorption was evaluated by calculating the inhibition ratio by the following formula. Inhibition ration (%)=100−(remaining liquid weight per unit area with a drug−basic average remaining liquid weight per unit area)/(average remaining liquid weight per unit area of vehicle−basic average remaining liquid weight per unit area)×100 […]

The nature of test [3]: Quantitative sensory evaluation test of kokumi-imparting activity. On the set-up: species or system human. Particulars: for Intensity of kokumi After taste / Intensity of kokumi First-middle taste: score control 0, strong 3, very strong 5, n=4. On the procedure: The kokumi-imparting effects can be confirmed by the method such as a gustatory test by a human being as mentioned in Examples of the present invention, but it is not limited to those.
On compounds wherein a calcium receptor activating action was found (sodium salts of Compound Nos. 1, 7 and 21), the intensity of kokumi-imparting activity was examined by a quantitative sensory evaluation test. The used compound was prepared by dissolving 525 mg of the compound No. 1 described in Synthetic Example 1 of Example I in 5 mL of distilled water, adjusting it to pH6.5 to 7 by adding 16.4 mL of 0.1M sodium hydroxide solution thereto, and freeze-drying it to obtain a sodium salt thereof. Further, the used compound was also prepared as follows. 500 mg of the compound No. 7 described in Synthetic Example 7 of Example I was suspended in 5 mL of distilled water. 1.61 mL of 1M sodium hydroxide and 0.8 mL of 2M hydrochloric acid were added thereto at 0° C. respectively to precipitate a solid substance. The precipitated solid substance was taken by filtration and dried under reduced pressure at 40° C. to obtain 426 mg of the compound No. 7. The obtained solid substance was suspended in 10 mL of distilled water. 1.2 mL of 1M sodium hydroxide was added thereto and freeze-dried to obtain a sodium salt thereof. The compound No. 21 was used in the form of a sodium salt of the compound No. 21 described in Synthetic Example 21 of Example I, which was prepared by the same method as mentioned above.
A quantitative sensory evaluation test was conducted as follows. 0.000001 to 0.1 g/dL of the compound(s) (a sodium salt of No. 1) was mixed as a sample to distilled water containing glutamic sodium (0.05 g/dL), inosine monophosphate (0.05 g/dL) and sodium chloride (0.5 g/dL). Then, the intensity of kokumi-imparting activity was examined at that time. As a reference, γ Glu-Cys-Gly and γ Glu-Val-Gly were used, each of which is a known kokumi-imparting component. As for a sample that becomes acidic to an additive-free control after dissolving the sample, it was used by being adjusted with sodium hydroxide to become within pH±0.2 to the additive-free control. As for sensory scoring, it was defined as a control: 0, strong: 3, and very strong: 5; and n=4. Meanwhile, “first-middle taste” means the taste combining first taste and middle taste. The kokumi-imparting activity was widely seen in the above addition concentrations, and the results of the representative concentrations are shown in Table 5.

From US9174932B2, “CaSR agonists” (AJINOMOTO CO., INC., priority 2008, dated 2015) come the findings set out here.

For orientation: EC50 means the concentration at which the effect is half-maximal. In test [1], `N[C@@H](CCC(=O)Nc1cccc(S(=O)(=O)O)c1)C(=O)O` [Compound No. 1, N^5-(3-sulfophenyl)-L-glutamine] returned a concentration giving a half-maximal response (EC50) of 12 nM. The Water absorption result in test [2] was “promoted in a dose-dependent manner”.
With `N[C@@H](CCC(=O)Nc1cc(Cl)cc(S(=O)(=O)O)c1O)C(=O)O` [Compound No. 7, N^5-(5-chloro-2-hydroxy-3-sulfophenyl)-L-glutamine], in test [1], the response was half-maximal at 1.9 nM (EC50). Besides, the Water absorption entry in test [2] was “promoted in a dose-dependent manner”.
In the case of `N[C@@H](CCC(=O)Nc1ccc(S(=O)(=O)O)c(Cl)c1)C(=O)O` [Compound No. 38, N^5-(3-chloro-4-sulfophenyl)-L-glutamine], the midpoint of the response in test [1], the EC50, lay at 6700 nM.
`N[C@@H](CCC(=O)Nc1ccc(S(=O)(=O)O)c(I)c1)C(=O)O` [Compound No. 40, N^5-(3-iodo-4-sulfophenyl)-L-glutamine]: the concentration giving a half-maximal response (EC50) in test [1] was 7900 nM.
On the same count and under the same terms, next, `N[C@@H](CCC(=O)Nc1cc(I)ccc1S(=O)(=O)O)C(=O)O` [Compound No. 41, N^5-(5-iodo-2-sulfophenyl)-L-glutamine]: 2300 nM.
Regarding `N[C@@H](CCC(=O)Nc1cccc(S(=O)(=O)[O-])c1)C(=O)O.[Na+]` [No.1-Na salt], the “Intensity of kokumi After taste” value is reported as 1.0 in test [3] (Conc. 0.00001 g/dL); 2.0 in test [3] (Conc. 0.0001 g/dL); 3.0 in test [3] (Conc. 0.0005 g/dL); 3.6 in test [3] (Conc. 0.001 g/dL); 5.0 in test [3] (Conc. 0.01 g/dL). The “Intensity of kokumi First-middle taste” value is reported as 0.7 in test [3] (Conc. 0.00001 g/dL); 1.8 in test [3] (Conc. 0.0001 g/dL); 2.6 in test [3] (Conc. 0.0005 g/dL); 3.2 in test [3] (Conc. 0.001 g/dL); 5.0 in test [3] (Conc. 0.01 g/dL). The Comments entry in test [3] (Conc. 0.001 g/dL) is given as “All tastes are strong, mainly”; in test [3] (Conc. 0.01 g/dL) it was “All tastes are strong”.
For `N[C@@H](CCC(=O)Nc1cc(Cl)cc(S(=O)(=O)[O-])c1O)C(=O)O.[Na+]` [No.7-Na salt], in test [3] (Conc. 0.00005 g/dL), the “Intensity of kokumi After taste” value stood at 2.5 and the “Intensity of kokumi First-middle taste” value stood at 2.2. For the same compound, in test [3] (Conc. 0.0001 g/dL), the Comments entry is on record as “There is about the same thickness”, the “Intensity of kokumi After taste” value is given as 3.2 and the “Intensity of kokumi First-middle taste” value amounted to 2.5. For the same compound, in test [3] (Conc. 0.0005 g/dL), the “Intensity of kokumi After taste” value worked out at 4.0 and the “Intensity of kokumi First-middle taste” value worked out at 3.3.
For the compound `Cc1c(Cl)cc(NC(=O)CC[C@H](N)C(=O)O)cc1S(=O)(=O)[O-].[Na+]` [No.21-Na salt], the “Intensity of kokumi After taste” value is on record as 2.0 in test [3] (Conc. 0.0002 g/dL), 3.1 in test [3] (Conc. 0.0005 g/dL) and 3.7 in test [3] (Conc. 0.001 g/dL). Also, the “Intensity of kokumi First-middle taste” value in test [3] (Conc. 0.0002 g/dL) is reported as 1.5; in test [3] (Conc. 0.0005 g/dL), 2.6; in test [3] (Conc. 0.001 g/dL), 3.1.
Take “γ Glu-Cys-Gly [γGlu-Cys-Gly, reference compound]”: in test [3] (Conc. 0.01 g/dL), the Comments result was “Richness, thickness and continuity”; the “Intensity of kokumi After taste” value was 3.0; the “Intensity of kokumi First-middle taste” value is recorded as 3.0.
Consider “γ Glu-Val-Gly [γGlu-Val-Gly, reference compound]”, for which, in test [3] (Conc. 0.001 g/dL), the Comments result is “Mellowness, richness and growth”; the “Intensity of kokumi After taste” value is on record as 3.0; the “Intensity of kokumi First-middle taste” value is listed as 2.5. Besides, in test [3] (Conc. 0.005 g/dL), the Comments result was “Mellowness, richness and growth”; the “Intensity of kokumi After taste” value amounted to 4.0; the “Intensity of kokumi First-middle taste” value is 3.5.
